Data: patent US20260240847A1, “COMPOUNDS WITH ANTI-TUMOR ACTIVITY AGAINST CANCER CELLS BEARING TYROSINE KINASE INHIBITOR RESISTANT EGFR MUTATIONS” (BOARD OF REGENTS, THE UNIVERSITY OF TEXAS SYSTEM, priority 2019, published 2026)
pIC50: −log10 of the molar value.

Legend:
Test in all cases: Ba/F3 cell viability, Cell Titer Glo
EGFR Ex19del T790M C797S = EGFR Ex19del T790M C797S (Homo sapiens, UniProt P00533, C797S/DEL746-750/T790M); conditions: read-out: IC50 Values; Ba/F3 cells expressing EGFR Ex19del T790M C797S, 72 hours
Experimental: (§1) Cell viability was determined by the Cell Titer Glo assay.
(§2) Briefly, stable Ba/F3 cell lines were generated by retroviral transduction of Ba/F3 cell line for 12 hours. […] Three days after transduction, 2 μg/ml puromycin (Invitrogen) was added to the RPMI media. Cell lines were then grown in the absence of IL-3 for two weeks and cell viability was assessed every three days using the Cell Titer Glo assay (Progema).
(§3) Briefly, 2000-3000 cells per well were plated in 384-well plates (Greiner Bio-One) in technical triplicate. Cells were treated with seven different concentrations of tyrosine kinase inhibitors or vehicle alone at a final volume of 40 μL per well. After 3 days, 11 μL of Cell Titer Glo was added to each well. Plates were shaken for 15 minutes, and bioluminescence was determined using a FLUOstar OPTIMA multi-mode micro-plate reader (BMG LABTECH). Bioluminescence values were normalized to DMSO treated cells, and normalized values were plotted in GraphPad Prism using non-linear regression fit to normalized data with a variable slope.

EGFR S768I V774M = EGFR S768I V774M (Homo sapiens, UniProt P00533, S768I/V774M); conditions: read-out: IC50 Values; Ba/F3 cells expressing EGFR S768I V774M, 72 hours
Chain of EGFR S768I V774M (P00533 25-1210 S768I/V774M): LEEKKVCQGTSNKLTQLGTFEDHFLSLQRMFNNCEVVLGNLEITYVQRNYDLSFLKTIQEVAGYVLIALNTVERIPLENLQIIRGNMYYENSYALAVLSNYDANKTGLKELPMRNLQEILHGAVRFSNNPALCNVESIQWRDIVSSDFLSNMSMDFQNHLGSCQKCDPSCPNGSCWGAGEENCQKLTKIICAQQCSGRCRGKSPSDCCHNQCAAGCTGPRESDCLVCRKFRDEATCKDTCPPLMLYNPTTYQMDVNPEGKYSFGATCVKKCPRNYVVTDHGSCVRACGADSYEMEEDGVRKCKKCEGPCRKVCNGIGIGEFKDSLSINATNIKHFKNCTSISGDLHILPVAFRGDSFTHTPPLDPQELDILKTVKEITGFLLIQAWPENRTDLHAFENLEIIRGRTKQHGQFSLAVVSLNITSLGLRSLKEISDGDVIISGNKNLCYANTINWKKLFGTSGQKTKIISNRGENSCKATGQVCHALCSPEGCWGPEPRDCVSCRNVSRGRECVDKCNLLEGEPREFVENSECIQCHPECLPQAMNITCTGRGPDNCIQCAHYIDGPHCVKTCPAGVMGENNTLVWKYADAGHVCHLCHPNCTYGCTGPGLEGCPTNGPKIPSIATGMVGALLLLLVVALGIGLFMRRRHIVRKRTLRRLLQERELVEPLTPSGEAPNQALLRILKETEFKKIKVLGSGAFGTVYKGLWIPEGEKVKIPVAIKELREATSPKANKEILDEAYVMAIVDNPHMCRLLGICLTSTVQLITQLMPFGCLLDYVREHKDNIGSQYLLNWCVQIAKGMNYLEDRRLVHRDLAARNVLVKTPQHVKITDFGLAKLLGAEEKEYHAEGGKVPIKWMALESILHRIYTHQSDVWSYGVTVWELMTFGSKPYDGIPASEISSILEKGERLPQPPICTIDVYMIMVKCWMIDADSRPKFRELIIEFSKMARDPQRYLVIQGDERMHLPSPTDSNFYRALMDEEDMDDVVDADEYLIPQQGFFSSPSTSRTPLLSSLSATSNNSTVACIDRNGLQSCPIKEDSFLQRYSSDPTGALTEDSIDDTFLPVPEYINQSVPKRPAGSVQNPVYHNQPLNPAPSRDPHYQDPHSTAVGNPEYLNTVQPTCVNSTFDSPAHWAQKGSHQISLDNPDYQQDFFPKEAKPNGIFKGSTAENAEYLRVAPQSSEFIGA
Experimental: as §1, §2, §3

EGFR S811F = EGFR S811F (Homo sapiens, UniProt P00533, S811F); conditions: read-out: IC50 Values; Ba/F3 cells expressing EGFR S811F, 72 hours
Chain of EGFR S811F (P00533 25-1210 S811F): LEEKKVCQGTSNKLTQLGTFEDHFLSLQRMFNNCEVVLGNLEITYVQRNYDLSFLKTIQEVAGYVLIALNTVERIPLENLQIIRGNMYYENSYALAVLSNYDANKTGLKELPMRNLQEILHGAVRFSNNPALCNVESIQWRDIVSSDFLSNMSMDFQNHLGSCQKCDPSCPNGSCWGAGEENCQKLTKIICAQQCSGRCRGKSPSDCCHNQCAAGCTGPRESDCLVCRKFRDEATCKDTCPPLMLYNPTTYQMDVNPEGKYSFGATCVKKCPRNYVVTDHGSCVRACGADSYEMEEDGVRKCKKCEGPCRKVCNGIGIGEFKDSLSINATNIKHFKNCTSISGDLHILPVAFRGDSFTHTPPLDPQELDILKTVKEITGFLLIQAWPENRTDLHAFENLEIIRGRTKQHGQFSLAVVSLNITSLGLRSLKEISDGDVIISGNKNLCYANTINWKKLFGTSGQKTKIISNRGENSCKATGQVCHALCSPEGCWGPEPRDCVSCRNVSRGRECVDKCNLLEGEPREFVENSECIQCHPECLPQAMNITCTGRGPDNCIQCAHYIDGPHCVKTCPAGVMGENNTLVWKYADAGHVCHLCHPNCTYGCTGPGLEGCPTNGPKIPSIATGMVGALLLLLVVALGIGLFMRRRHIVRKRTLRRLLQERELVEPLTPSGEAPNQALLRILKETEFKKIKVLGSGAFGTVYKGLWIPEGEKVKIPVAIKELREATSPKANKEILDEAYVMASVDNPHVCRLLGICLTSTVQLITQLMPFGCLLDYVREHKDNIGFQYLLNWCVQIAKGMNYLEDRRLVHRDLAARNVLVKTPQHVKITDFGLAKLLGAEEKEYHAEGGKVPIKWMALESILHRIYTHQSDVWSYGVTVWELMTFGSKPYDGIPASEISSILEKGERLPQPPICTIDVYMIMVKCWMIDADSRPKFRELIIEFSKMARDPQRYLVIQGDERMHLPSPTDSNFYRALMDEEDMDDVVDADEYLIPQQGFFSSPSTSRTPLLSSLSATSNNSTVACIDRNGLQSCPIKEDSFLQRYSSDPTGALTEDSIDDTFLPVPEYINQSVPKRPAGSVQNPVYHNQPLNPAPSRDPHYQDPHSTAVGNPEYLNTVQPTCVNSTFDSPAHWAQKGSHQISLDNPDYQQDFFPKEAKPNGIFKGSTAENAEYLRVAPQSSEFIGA
Experimental: as §1, §2, §3

EGFR L747S = EGFR L747S (Homo sapiens, UniProt P00533, L747S); conditions: read-out: IC50 Values; Ba/F3 cells expressing EGFR L747S, 72 hours
Chain of EGFR L747S (P00533 25-1210 L747S): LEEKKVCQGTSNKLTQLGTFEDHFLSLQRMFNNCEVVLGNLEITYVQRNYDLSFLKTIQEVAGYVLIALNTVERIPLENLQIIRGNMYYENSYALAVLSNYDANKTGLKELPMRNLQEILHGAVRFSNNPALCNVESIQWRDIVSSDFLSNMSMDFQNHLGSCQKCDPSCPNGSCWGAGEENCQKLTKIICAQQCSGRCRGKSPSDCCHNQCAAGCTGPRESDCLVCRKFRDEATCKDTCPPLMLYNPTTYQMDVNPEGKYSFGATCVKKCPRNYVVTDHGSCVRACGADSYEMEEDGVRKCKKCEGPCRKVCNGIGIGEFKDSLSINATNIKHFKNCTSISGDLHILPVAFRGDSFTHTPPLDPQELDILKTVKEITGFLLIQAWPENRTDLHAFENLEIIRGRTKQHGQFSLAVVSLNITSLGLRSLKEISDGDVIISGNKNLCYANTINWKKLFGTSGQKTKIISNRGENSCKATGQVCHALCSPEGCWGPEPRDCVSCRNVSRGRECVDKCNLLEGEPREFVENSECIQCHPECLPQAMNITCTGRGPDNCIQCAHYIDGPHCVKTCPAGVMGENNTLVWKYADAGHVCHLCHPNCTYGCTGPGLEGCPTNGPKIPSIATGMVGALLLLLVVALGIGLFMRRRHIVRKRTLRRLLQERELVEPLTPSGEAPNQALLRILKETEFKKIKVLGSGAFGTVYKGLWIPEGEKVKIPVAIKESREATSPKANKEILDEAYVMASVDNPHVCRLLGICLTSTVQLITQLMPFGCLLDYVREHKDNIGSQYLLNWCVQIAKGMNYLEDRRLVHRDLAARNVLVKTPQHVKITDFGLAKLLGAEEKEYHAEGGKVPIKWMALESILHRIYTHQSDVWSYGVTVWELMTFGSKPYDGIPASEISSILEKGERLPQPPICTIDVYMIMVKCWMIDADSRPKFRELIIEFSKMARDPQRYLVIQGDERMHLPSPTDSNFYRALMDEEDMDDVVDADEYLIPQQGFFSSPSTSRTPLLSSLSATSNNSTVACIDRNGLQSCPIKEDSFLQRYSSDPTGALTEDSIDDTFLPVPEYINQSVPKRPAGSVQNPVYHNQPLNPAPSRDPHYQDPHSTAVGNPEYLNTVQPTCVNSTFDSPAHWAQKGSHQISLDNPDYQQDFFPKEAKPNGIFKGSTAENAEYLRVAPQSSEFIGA
Experimental: as §1, §2, §3

EGFR S768I = EGFR S768I (Homo sapiens, UniProt P00533, S768I); conditions: read-out: IC50 Values; Ba/F3 cells expressing EGFR S768I, 72 hours
Experimental: as §1, §2, §3

EGFR K754E = EGFR K754E (Homo sapiens, UniProt P00533, K754E); conditions: read-out: IC50 Values; Ba/F3 cells expressing EGFR K754E, 72 hours
Experimental: as §1, §2, §3

EGFR L858R S784F = EGFR L858R S784F (Homo sapiens, UniProt P00533, L858R/S784F); conditions: read-out: IC50 Values; Ba/F3 cells expressing EGFR L858R S784F, 72 hours
Experimental: (§4) The transforming capability of the mutations was then evaluated by sustained cell viability following IL-3 deprivation. Activating EGFR mutant Ba/F3 cells were then screened against EGFR TKIs. Cell viability was determined by the Cell Titer Glo assay.
(§5) Ba/F3 cells expressing acquired atypical mutations spanning exons 18-21 were treated with inhibitors for 72 hours. […] Briefly, stable Ba/F3 cell lines were generated by retroviral transduction of Ba/F3 cell line for 12 hours. […] Three days after transduction, 2 μg/ml puromycin (Invitrogen) was added to the RPMI media. Cell lines were then grown in the absence of IL-3 for two weeks and cell viability was assessed every three days using the Cell Titer Glo assay (Progema).
as §3

EGFR Ex19del L718Q = EGFR Ex19del L718Q (Homo sapiens, UniProt P00533, DEL746-750/L718Q); conditions: read-out: IC50 Values; Ba/F3 cells expressing EGFR Ex19del L718Q, 72 hours
Experimental: as §4, §5, §3

EGFR H773insNPH = EGFR H773insNPH (Homo sapiens, UniProt P00533, INS773NPH); conditions: read-out: IC50 Values; Ba/F3 cells expressing EGFR H773insNPH, 72 hours
Experimental: as §1, §2, §3

EGFR V774M = EGFR V774M (Homo sapiens, UniProt P00533, V774M); conditions: read-out: IC50 Values; Ba/F3 cells expressing EGFR V774M, 72 hours
Experimental: as §1, §2, §3

EGFR G719A L861Q = EGFR G719A L861Q (Homo sapiens, UniProt P00533, G719A/L861Q); conditions: read-out: IC50 Values; Ba/F3 cells expressing EGFR G719A L861Q, 72 hours
Experimental: as §1, §2, §3

EGFR E709AG719S = EGFR E709AG719S (Homo sapiens, UniProt P00533, E709A/G719S); conditions: read-out: IC50 Values; Ba/F3 cells expressing EGFR E709AG719S, 72 hours
Experimental: as §1, §2, §3

EGFR L858R T790M V843I = EGFR L858R T790M V843I (Homo sapiens, UniProt P00533, L858R/T790M/V843I); conditions: read-out: IC50 Values; Ba/F3 cells expressing EGFR L858R T790M V843I, 72 hours
Experimental: as §1, §2, §3

EGFR G719S = EGFR G719S (Homo sapiens, UniProt P00533, G719S); conditions: read-out: IC50 Values; Ba/F3 cells expressing EGFR G719S, 72 hours
Experimental: as §1, §2, §3

EGFR V769L = EGFR V769L (Homo sapiens, UniProt P00533, V769L); conditions: read-out: IC50 Values; Ba/F3 cells expressing EGFR V769L, 72 hours
Experimental: as §1, §2, §3

EGFR E709K = EGFR E709K (Homo sapiens, UniProt P00533, E709K); conditions: read-out: IC50 Values; Ba/F3 cells expressing EGFR E709K, 72 hours
Experimental: as §1, §2, §3

EGFR Ex19del/T790M/G724S = EGFR Ex19del/T790M/G724S (Homo sapiens, UniProt P00533, DEL746-750/G724S/T790M); conditions: read-out: IC50 Values; Ba/F3 cells expressing EGFR Ex19del/T790M/G724S, 72 hours
Chain of EGFR Ex19del/T790M/G724S (P00533 with tags, fused parts or gaps G724S/DEL746-750/T790M): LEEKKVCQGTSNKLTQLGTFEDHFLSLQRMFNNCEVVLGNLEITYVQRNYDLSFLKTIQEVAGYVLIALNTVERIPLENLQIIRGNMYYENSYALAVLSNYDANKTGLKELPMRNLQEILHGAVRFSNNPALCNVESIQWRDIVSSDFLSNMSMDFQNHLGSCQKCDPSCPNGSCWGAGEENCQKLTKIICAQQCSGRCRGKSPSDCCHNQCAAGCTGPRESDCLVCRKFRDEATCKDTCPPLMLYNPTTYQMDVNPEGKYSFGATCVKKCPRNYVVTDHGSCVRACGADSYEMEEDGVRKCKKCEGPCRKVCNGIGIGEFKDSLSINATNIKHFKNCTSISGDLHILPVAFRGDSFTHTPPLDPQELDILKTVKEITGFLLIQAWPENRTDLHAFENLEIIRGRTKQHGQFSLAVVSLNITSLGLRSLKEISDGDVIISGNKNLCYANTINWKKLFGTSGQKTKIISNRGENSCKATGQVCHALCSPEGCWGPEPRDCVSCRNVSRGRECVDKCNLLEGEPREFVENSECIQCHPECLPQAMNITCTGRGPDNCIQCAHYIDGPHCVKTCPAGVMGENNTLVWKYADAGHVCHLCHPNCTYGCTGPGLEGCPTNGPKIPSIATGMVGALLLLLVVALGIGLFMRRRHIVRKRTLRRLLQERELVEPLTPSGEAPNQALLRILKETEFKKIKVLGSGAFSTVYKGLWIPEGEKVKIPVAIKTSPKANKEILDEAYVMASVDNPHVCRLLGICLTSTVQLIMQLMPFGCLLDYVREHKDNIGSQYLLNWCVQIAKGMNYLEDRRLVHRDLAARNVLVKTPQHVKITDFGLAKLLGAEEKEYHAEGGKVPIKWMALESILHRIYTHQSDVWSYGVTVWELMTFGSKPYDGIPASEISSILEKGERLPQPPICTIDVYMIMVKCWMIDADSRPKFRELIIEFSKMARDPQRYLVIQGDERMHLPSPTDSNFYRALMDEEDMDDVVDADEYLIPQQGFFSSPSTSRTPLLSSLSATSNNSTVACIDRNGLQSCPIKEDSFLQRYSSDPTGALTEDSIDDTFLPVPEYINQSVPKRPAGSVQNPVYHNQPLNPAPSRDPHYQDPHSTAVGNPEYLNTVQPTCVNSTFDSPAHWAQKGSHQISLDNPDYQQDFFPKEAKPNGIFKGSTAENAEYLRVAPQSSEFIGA
Experimental: as §1, §3

EGFR L858R/C797S = EGFR L858R/C797S (Homo sapiens, UniProt P00533, C797S/L858R); conditions: read-out: IC50 Values; Ba/F3 cells expressing EGFR L858R/C797S, 72 hours
Experimental: as §4, §5, §3

EGFR T790M = EGFR T790M (Homo sapiens, UniProt P00533, T790M); conditions: read-out: IC50 Values; Ba/F3 cells expressing EGFR T790M, 72 hours
Experimental: as §1, §2, §3

EGFR S720P = EGFR S720P (Homo sapiens, UniProt P00533, S720P); conditions: read-out: IC50 Values; Ba/F3 cells expressing EGFR S720P, 72 hours
Experimental: as §1, §2, §3

With C=CC(=O)N1CC[C@@H](Oc2nc(Nc3ccc(N4CCC(N5CCN(C)CC5)CC4)cc3)c(C(N)=O)nc2CC)C1 [Naquotinib] the pIC50 (EGFR Ex19del T790M C797S) was 5.71, the pIC50 (EGFR S768I V774M) was 7.18 and the pIC50 (EGFR S811F) was 6.76. The pIC50 (EGFR L747S) was 6.92, the pIC50 (EGFR S768I) was 6.30 and the pIC50 (EGFR K754E) was 7.18. For the same molecule, the pIC50 (EGFR L858R S784F) was 6.45, the pIC50 (EGFR Ex19del L718Q) was 8.58 and the pIC50 (EGFR H773insNPH) was 6.84. The pIC50 (EGFR V774M) was 7.41, the pIC50 (EGFR G719A L861Q) was 8.37 and the pIC50 (EGFR E709AG719S) was 7.32. The pIC50 (EGFR L858R T790M V843I) was 8.69, the pIC50 (EGFR G719S) was 7.44 and the pIC50 (EGFR V769L) was 6.66. For the same molecule, the pIC50 (EGFR E709K) was 6.45, the pIC50 (EGFR Ex19del/T790M/G724S) was 8.42 and the pIC50 (EGFR L858R/C797S) was 6.15. The pIC50 (EGFR T790M) was 7.26 and the pIC50 (EGFR S720P) was 7.28.
